{"source": "ChEMBL document CHEMBL5352392", "about": "“Design, synthesis, and biological evaluation of novel dual inhibitors of heat shock protein 90/mammalian target of rapamycin (Hsp90/mTOR) against bladder cancer cells” (Eur J Med Chem, 2022)", "key": {"[1]": {"tested_on": "SW780", "test": "Induction of apoptosis in human SW780 cells assessed as early apoptotic cells at 0.5 uM incubated for 24 hrs by Annexin V-FITC/PI staining based flow cytometry (reference value: 1.43 %)", "assay_type": "functional"}, "[2]": {"biological_target": "T1, Serine/threonine-protein kinase mTOR (Homo sapiens, UniProt P42345)", "test": "Inhibition of mTOR (unknown origin) by kinase profiling assay"}, "[3]": {"tested_on": "SW780", "test": "Induction of apoptosis in human SW780 cells assessed as necrotic cells at 0.2 uM incubated for 24 hrs by Annexin V-FITC/PI staining based flow cytometry (reference value: 92.3 %)", "assay_type": "functional"}, "[4]": {"tested_on": "SW780", "test": "Upregulation of intracellular cathepsin B activity in human SW780 cells", "assay_type": "functional, cell-based"}, "[5]": {"tested_on": "SW780", "test": "Downregulation of phosphorylated mTOR level in human SW780 cells at 0.2 to 0.5 uM by Western blot analysis", "assay_type": "functional, cell-based", "settings": "dose 0.2-0.5 µM"}, "[6]": {"biological_target": "T1, Serine/threonine-protein kinase mTOR", "test": "Inhibition of mTOR (unknown origin) at 100 nM by kinase profiling assay relative to control"}, "[7]": {"tested_on": "SW780", "test": "Induction of apoptosis in human SW780 cells assessed as late apoptotic cells at 0.5 uM incubated for 24 hrs by Annexin V-FITC/PI staining based flow cytometry (reference value: 2.30 %)", "assay_type": "functional"}, "[8]": {"tested_on": "SW780", "test": "Induction of apoptosis in human SW780 cells assessed as early apoptotic cells at 0.2 uM incubated for 24 hrs by Annexin V-FITC/PI staining based flow cytometry (reference value: 1.43 %)", "assay_type": "functional"}, "[9]": {"tested_on": "SW780", "test": "Downregulation of c-Raf level in human SW780 cells at 0.2 to 0.5 uM by Western blot analysis", "assay_type": "functional, cell-based", "settings": "dose 0.2-0.5 µM"}, "[10]": {"tested_on": "J82", "test": "Antitumor activity against human J82 cells xenografted in nude Balb/c mouse assessed as […] at 30 mg/kg, po administered everyday for 17 days by IHC analysis", "assay_type": "functional, organism-based", "settings": "time 17.0 day"}, "[11]": {"tested_on": "J82", "test": "Antitumor activity against human J82 cells xenografted in nude Balb/c mouse assessed as increase in LC3-II level at 30 mg/kg, po administered everyday for 17 days by IHC analysis", "assay_type": "functional, organism-based", "settings": "time 17.0 day"}, "[12]": {"tested_on": "SW780", "test": "Downregulation of CDC2 level in human SW780 cells at 0.2 to 0.5 uM by Western blot analysis", "assay_type": "functional, cell-based", "settings": "dose 0.2-0.5 µM"}, "[13]": {"tested_on": "SW780", "test": "Induction of autophagy in human SW780 cells transfected with GFP-LC3 assessed as formation of autophagosomes incubated for 6 hrs in presence of Baf-A1 by laser scanning confocal microscopic analysis", "assay_type": "functional, cell-based"}, "[14]": {"tested_on": "SW780", "test": "Upregulation of Hsp70 level in human SW780 cells by Western blot analysis", "assay_type": "functional, cell-based", "settings": "dose 0.2-0.5 µM"}, "[15]": {"tested_on": "SW780", "test": "Downregulation of phosphorylated AKT level in human SW780 cells at 0.2 to 0.5 uM by Western blot analysis", "assay_type": "functional, cell-based", "settings": "dose 0.2-0.5 µM"}, "[16]": {"biological_target": "T2, Heat shock protein HSP90 (Homo sapiens, UniProt P07900+P08238)", "test": "Inhibition of Hsp90 (unknown origin) by TR-FRET assay", "assay_type": "protein assay"}, "[17]": {"tested_on": "T-24", "test": "Antiproliferative activity against human T24 cells assessed as inhibition of cell proliferation by CCK8 assay", "assay_type": "functional, cell-based"}, "[18]": {"tested_on": "J82", "test": "Antitumor activity against human J82 cells xenografted in nude Balb/c mouse assessed as tumor growth inhibition at 30 mg/kg, po administered everyday for 17 days", "assay_type": "functional, organism-based", "settings": "time 17.0 day"}, "[19]": {"tested_on": "SW780", "test": "Induction of apoptosis in human SW780 cells assessed as necrotic cells at 0.5 uM incubated for 24 hrs by Annexin V-FITC/PI staining based flow cytometry (reference value: 92.3 %)", "assay_type": "functional"}, "[20]": {"tested_on": "SW780", "test": "Upregulation of cytochrome C level in human SW780 cells at 0.2 to 0.5 uM by Western blot analysis", "assay_type": "functional, cell-based", "settings": "dose 0.2-0.5 µM"}, "[21]": {"tested_on": "SW780", "test": "Induction of apoptosis in human SW780 cells assessed as late apoptotic cells at 0.2 uM incubated for 24 hrs by Annexin V-FITC/PI staining based flow cytometry (reference value: 2.30 %)", "assay_type": "functional"}, "[22]": {"tested_on": "SW780", "test": "Upregulation of intracellular cathepsin B activity in human SW780 cells in presence of Baf-A1", "assay_type": "functional, cell-based"}, "[23]": {"tested_on": "SW780", "test": "Induction of autophagy in human SW780 cells assessed as formation of autophagic vacuoles in cytoplasm by TEM analysis", "assay_type": "functional, cell-based"}, "[24]": {"biological_target": "Phosphatidylinositol 4,5-bisphosphate 3-kinase catalytic subunit alpha isoform (Homo sapiens, UniProt P42336)", "sequence (P42336 whole entry, canonical isoform)": "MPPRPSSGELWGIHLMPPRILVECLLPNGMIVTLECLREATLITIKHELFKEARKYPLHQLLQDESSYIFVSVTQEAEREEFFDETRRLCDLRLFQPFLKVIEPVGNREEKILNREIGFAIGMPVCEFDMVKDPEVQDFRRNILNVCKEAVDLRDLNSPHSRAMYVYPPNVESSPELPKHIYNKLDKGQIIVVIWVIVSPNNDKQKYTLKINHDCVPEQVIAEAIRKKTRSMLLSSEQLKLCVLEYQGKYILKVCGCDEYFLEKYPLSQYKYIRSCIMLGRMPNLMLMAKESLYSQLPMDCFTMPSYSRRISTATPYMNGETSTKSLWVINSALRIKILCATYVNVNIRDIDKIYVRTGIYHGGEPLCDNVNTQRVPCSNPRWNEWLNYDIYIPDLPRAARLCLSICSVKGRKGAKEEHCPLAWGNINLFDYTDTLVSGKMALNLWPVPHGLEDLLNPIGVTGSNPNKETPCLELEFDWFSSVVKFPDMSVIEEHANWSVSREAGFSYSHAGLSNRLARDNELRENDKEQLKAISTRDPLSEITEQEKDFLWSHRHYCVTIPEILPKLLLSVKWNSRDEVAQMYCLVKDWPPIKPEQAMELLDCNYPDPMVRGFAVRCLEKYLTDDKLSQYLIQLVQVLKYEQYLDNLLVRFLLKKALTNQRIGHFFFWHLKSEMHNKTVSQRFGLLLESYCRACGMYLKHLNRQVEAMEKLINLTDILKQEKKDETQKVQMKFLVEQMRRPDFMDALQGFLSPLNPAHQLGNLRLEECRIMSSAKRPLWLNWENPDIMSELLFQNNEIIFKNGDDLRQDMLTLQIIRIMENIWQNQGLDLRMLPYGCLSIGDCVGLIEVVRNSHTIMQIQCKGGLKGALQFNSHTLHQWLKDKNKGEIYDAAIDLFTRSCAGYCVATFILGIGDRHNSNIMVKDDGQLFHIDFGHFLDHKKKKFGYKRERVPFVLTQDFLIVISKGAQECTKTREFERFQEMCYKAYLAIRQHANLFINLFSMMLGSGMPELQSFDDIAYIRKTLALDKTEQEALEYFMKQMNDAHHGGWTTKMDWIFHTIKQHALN", "test": "Inhibition of PI3Kalpha (unknown origin) by kinase profiling assay"}, "[25]": {"tested_on": "J82", "test": "Antiproliferative activity against human J82 cells assessed as inhibition of cell proliferation by CCK8 assay", "assay_type": "functional, cell-based"}, "[26]": {"tested_on": "SW780", "test": "Induction of autophagy in human SW780 cells transfected with GFP-LC3 assessed as formation of autophagosomes incubated for 6 hrs in presence of 3-MA by laser scanning confocal microscopic analysis", "assay_type": "functional, cell-based"}, "[27]": {"tested_on": "SW780", "test": "Antiproliferative activity against human SW780 cells assessed as cell survival at 0.5 uM measured after 72 hrs by CCK8 assay relative to control", "assay_type": "functional", "settings": "read-out: Activity"}, "[28]": {"tested_on": "SW780", "test": "Downregulation of CDK4 level in human SW780 cells at 0.2 to 0.5 uM by Western blot analysis", "assay_type": "functional, cell-based", "settings": "dose 0.2-0.5 µM"}, "[29]": {"tested_on": "SW780", "test": "Induction of autophagy in human SW780 cells transfected with GFP-LC3 assessed as formation of autophagosomes at 0.5 uM incubated for 24 hrs by laser scanning confocal microscopic analysis", "assay_type": "functional, cell-based"}, "[30]": {"tested_on": "SW780", "test": "Antiproliferative activity against human SW780 cells assessed as inhibition of cell proliferation by CCK8 assay", "assay_type": "functional, cell-based"}, "[31]": {"tested_on": "T-24", "test": "Antiproliferative activity against human T24 cells assessed as inhibition of cell proliferation at 1 uM by CCK8 assay relative to control", "assay_type": "functional"}, "[32]": {"tested_on": "SW780", "test": "Antiproliferative activity against human SW780 cells assessed as inhibition of cell proliferation at 1 uM by CCK8 assay relative to control", "assay_type": "functional"}, "[33]": {"tested_on": "SW780", "test": "Downregulation of p62 level in human SW780 cells at 0.2 to 0.5 uM by Western blot analysis", "assay_type": "functional, cell-based", "settings": "dose 0.2-0.5 µM"}, "[34]": {"biological_target": "T2, Heat shock protein HSP90", "settings": "dose 100.0 nM", "description": "Inhibition of Hsp90 (unknown origin) at 100 nM by TR-FRET assay relative to control"}, "[35]": {"tested_on": "J82", "test": "Antiproliferative activity against human J82 cells assessed as inhibition of cell proliferation at 1 uM by CCK8 assay relative to control", "assay_type": "functional"}, "[36]": {"tested_on": "SW780", "test": "Induction of apoptosis in human SW780 cells assessed as viable cells at 0.2 uM incubated for 24 hrs by Annexin V-FITC/PI staining based flow cytometry (reference value: 92.3 %)", "assay_type": "functional", "settings": "read-out: Activity"}, "[37]": {"tested_on": "SW780", "test": "Upregulation of LC3-II level in human SW780 cells at 0.2 to 0.5 uM by Western blot analysis", "assay_type": "functional, cell-based", "settings": "dose 0.2-0.5 µM"}, "[38]": {"test": "Toxicity in nude Balb/c mouse xenografted with human J82 cells assessed as body weight reduction at 30 mg/kg, po administered everyday for 17 days", "assay_type": "organism-based", "settings": "in vivo, 408 h, time 17 day"}, "[39]": {"tested_on": "J82", "test": "Antitumor activity against human J82 cells xenografted in nude Balb/c mouse assessed as decrease in mTOR phosphorylation level at 30 mg/kg, po administered everyday for 17 days by IHC analysis", "assay_type": "functional, organism-based", "settings": "time 17.0 day"}, "[40]": {"tested_on": "SW780", "test": "Upregulation of intracellular cathepsin B activity in human SW780 cells in presence of 3-MA", "assay_type": "functional, cell-based"}, "[41]": {"tested_on": "SW780", "test": "Induction of apoptosis in human SW780 cells assessed as viable cells at 0.5 uM incubated for 24 hrs by Annexin V-FITC/PI staining based flow cytometry (reference value: 92.3 %)", "assay_type": "functional", "settings": "read-out: Activity"}, "[42]": {"tested_on": "SW780", "test": "Upregulation of cleaved caspase-3 level in human SW780 cells at 0.2 to 0.5 uM by Western blot analysis", "assay_type": "functional, cell-based", "settings": "dose 0.2-0.5 µM"}}, "note": "The source made the active and inactive calls. The calls are words filed in the database; no cut-off is given here."}
{"smiles": "CC(C)c1cc(C(=O)N2CCc3c(sc4nc(-c5ccc(NC(=O)Nc6ccc(F)c(Cl)c6)cc5)nc(N5CCOCC5)c34)C2)c(O)cc1O", "values": [{"measurement": "Activity", "setting": "[1]", "result": 9.23, "unit": "%"}, {"measurement": "IC50", "setting": "[2]", "result": 29, "unit": "nM"}, {"measurement": "Activity", "setting": "[3]", "result": 4.38, "unit": "%"}, {"measurement": "Activity", "setting": "[4]", "result": "Active"}, {"measurement": "Activity", "setting": "[5]", "result": "Active"}, {"measurement": "inhibition", "setting": "[6]", "result": 83.1, "unit": "%"}, {"measurement": "Activity", "setting": "[7]", "result": 5.01, "unit": "%"}, {"measurement": "Activity", "setting": "[8]", "result": 4.77, "unit": "%"}, {"measurement": "Activity", "setting": "[9]", "result": "Active"}, {"measurement": "Activity", "setting": "[10]", "result": "Active"}, {"measurement": "Activity", "setting": "[11]", "result": "Active"}, {"measurement": "Activity", "setting": "[12]", "result": "Active"}, {"measurement": "Activity", "setting": "[13]", "result": "Active"}, {"measurement": "Activity", "setting": "[14]", "result": "Dose-Dependent Effect"}, {"measurement": "Activity", "setting": "[15]", "result": "Active"}, {"measurement": "IC50", "setting": "[16]", "result": 69, "unit": "nM"}, {"measurement": "IC50", "setting": "[17]", "result": 410, "unit": "nM"}, {"measurement": "inhibition", "setting": "[18]", "result": "Active"}, {"measurement": "Activity", "setting": "[19]", "result": 2.31, "unit": "%"}, {"measurement": "Activity", "setting": "[20]", "result": "Active"}, {"measurement": "Activity", "setting": "[21]", "result": 3.29, "unit": "%"}, {"measurement": "Activity", "setting": "[22]", "result": "inactive"}, {"measurement": "Activity", "setting": "[23]", "result": "Active"}, {"measurement": "IC50", "setting": "[24]", "result": 4980, "unit": "nM"}, {"measurement": "IC50", "setting": "[25]", "result": 360, "unit": "nM"}, {"measurement": "Activity", "setting": "[26]", "result": "inactive"}, {"measurement": "viability at 0.5 µM", "setting": "[27]", "result": "< 40", "unit": "%"}, {"measurement": "Activity", "setting": "[28]", "result": "Active"}, {"measurement": "Activity", "setting": "[29]", "result": "Active"}, {"measurement": "IC50", "setting": "[30]", "result": 160, "unit": "nM"}, {"measurement": "inhibition at 1 µM", "setting": "[31]", "result": 91.7, "unit": "%"}, {"measurement": "inhibition at 1 µM", "setting": "[32]", "result": 93.8, "unit": "%"}, {"measurement": "Activity", "setting": "[33]", "result": "Active"}, {"measurement": "inhibition", "setting": "[34]", "result": 83.3, "unit": "%"}, {"measurement": "inhibition at 1 µM", "setting": "[35]", "result": 79.3, "unit": "%"}, {"measurement": "viability at 0.2 µM", "setting": "[36]", "result": 87.6, "unit": "%"}, {"measurement": "Activity", "setting": "[37]", "result": "Active"}, {"measurement": "Activity", "setting": "[38]", "result": "Non-Toxic"}, {"measurement": "Activity", "setting": "[39]", "result": "Active"}, {"measurement": "Activity", "setting": "[40]", "result": "inactive"}, {"measurement": "viability at 0.5 µM", "setting": "[41]", "result": 83.5, "unit": "%"}, {"measurement": "Activity", "setting": "[42]", "result": "Active"}]}
